Tests used:
adenosine A1 receptor = target: T1, adenosine A1 receptor (Bos taurus, UniProt P28190); assay: Receptor affinity (radioligand binding), A1, [3H]CHA; set-up: species or system bovine; conditions: for Ki: [3H]CHA, room temperature, 2 hours, tissues listed: bovine caudate, guinea pig cortex, guinea pig striatum (only Example 13 marked guinea pig); for Selectivity Ratio (A2 Ki /A1 Ki): radioligand binding
T1 construct: were homogenized with a Brinkman polytron and the membranes were collected by centrifugation; from tissue; host or cells: bovine caudate membranes
T1 sequence (P28190 1-326): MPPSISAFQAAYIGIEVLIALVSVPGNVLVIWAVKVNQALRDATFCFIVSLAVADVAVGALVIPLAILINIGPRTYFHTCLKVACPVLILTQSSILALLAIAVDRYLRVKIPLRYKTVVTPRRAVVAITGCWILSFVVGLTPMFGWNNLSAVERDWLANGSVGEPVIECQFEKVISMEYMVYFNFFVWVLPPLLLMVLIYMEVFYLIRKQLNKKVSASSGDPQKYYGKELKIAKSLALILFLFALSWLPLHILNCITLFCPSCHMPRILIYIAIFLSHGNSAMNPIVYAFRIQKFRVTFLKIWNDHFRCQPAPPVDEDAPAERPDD
Experimental: (§1) 1. Receptor Affinity Experiments (Radioligand Binding)
(§2) Tissues (bovine caudate, guinea pig cortex, guinea pig striatum) were homogenized with a Brinkman polytron and the membranes were collected by centrifugation at 40,000×g at 4° C. for 10 min. The membranes were washed by resuspension and centrifugation, resuspended, and incubated in the presence of 1 U/ml adenosine deaminase for 15-30 min. at 37° C. The membranes were diluted, centrifuged once, and resuspended to a final concentration of 0.5-2 mg protein/ml. Adenosine deaminase (0.1 U/ml) was included in the final resuspension. Assays were initiated by addition of membranes. The compounds of the present invention were subjected to the following experimental conditions: A1 determinations/incubated with [^3 H]CHA at room temperature for 2 hours, A2 determinations/incubated with [^3 H]NECA at room temperature for 1 hour. Assays were terminated by filtration, and the filters were counted in scintillation counters.

adenosine A2 receptor = assay: Receptor affinity (radioligand binding), A2, [3H]NECA; set-up: species or system bovine / guinea pig; conditions: room temperature, 1 hour
Experimental: as §1, §2

Compound	Ki (adenosine A1 receptor)	Selectivity Ratio (A2 Ki /A1 Ki) (adenosine A1 receptor)	Ki (adenosine A2 receptor)
Cn1cnc2c(N[C@@H]3C[C@H]4C[C@@H]3CC4=O)ncnc21 (relative stereo) [Example 29, (±)-N^6-[endo-2'-aminonorbornan-5-one]-9-methyladenine]	501 nM	> 20	> 10000 nM
Cn1cnc2c(N[C@H]3C[C@@H]4CC(=O)[C@H]3C4)ncnc21 (relative stereo) [Example 34]	69.2 nM	218	15100 nM
CCCn1cnc2c(N[C@@H]3C[C@H]4C[C@@H]3C[C@H]4O)ncnc21 (relative stereo) [Example 42]	28.8 nM	224	6460 nM
CC(C)n1cnc2c(N[C@@H]3C[C@H]4C[C@@H]3CC4=O)ncnc21 (relative stereo) [Example 44]	251 nM	85	21400 nM
Cn1c(Br)nc2c(N[C@@H]3C[C@H]4C[C@@H]3C[C@@H]4O)ncnc21 (relative stereo) [Example 27]	5.01 nM	132	661 nM
CCCn1cnc2c(N[C@@H]3C[C@H]4C[C@@H]3C[C@@H]4O)ncnc21 (relative stereo) [Example 43]	257 nM	> 39	> 10000 nM
CC(C)n1cnc2c(N[C@@H]3C[C@H]4C[C@@H]3C[C@H]4O)ncnc21 (relative stereo) [Example 45]	295 nM	> 34	> 10000 nM
CN(C)c1nc2c(N[C@@H]3C[C@@H]4CC(=O)[C@H]3C4)ncnc2n1C (relative stereo) [Example 28]	8.31 nM	550	4570 nM
Cn1c(N2CCOCC2)nc2c(NC3CCCC3)ncnc21 [Example 15]	42 nM	> 238	> 10000 nM
Cn1c(N2CCOCC2)nc2c(N[C@H]3C[C@@H]4C[C@H]3C[C@@H]4O)ncnc21 (relative stereo) [Example 25]	19 nM	> 526	> 10000 nM
Cn1c(N2CCOCC2)nc2c(N[C@H]3C[C@H]4CC[C@@H]3C4)ncnc21 (relative stereo) [Example 6]	24 nM	> 417	> 10000 nM
CCN(CC)c1nc2c(NC3CCCC3)ncnc2n1C [Example 14]	3.72 nM	117	436 nM
Cn1cnc2c(N[C@H]3C[C@H]4C[C@@H]3[C@H](O)C4)ncnc21 (relative stereo) [Example 35]	295 nM	120	35500 nM

More lines, in order of falling Ki (adenosine A1 receptor), values ahead:

Ki (adenosine A1 receptor)	Selectivity Ratio (A2 Ki /A1 Ki) (adenosine A1 receptor)	Ki (adenosine A2 receptor)	Compound
295 nM	> 34	> 10000 nM	CC(C)n1cnc2c(N[C@@H]3C[C@H]4C[C@@H]3C[C@@H]4O)ncnc21 (relative stereo) [Example 46]
45.8 nM	240	11000 nM	CCCCN(C)c1nc2c(N[C@H]3C[C@H]4CC[C@@H]3C4)ncnc2n1C (relative stereo) [Example 11]
42.7 nM	269	11500 nM	Cn1cnc2c(N[C@H]3C[C@H]4C[C@@H]3CC4=O)ncnc21 (relative stereo) [Example 33]
19 nM	> 526	> 10000 nM	Cn1c(N2CCCC2)nc2c(N[C@H]3C[C@H]4CC[C@@H]3C4)ncnc21 (relative stereo) [Example 7]
11.5 nM	397	4570 nM	Cn1cnc2c(N[C@H]3C[C@H]4C[C@@H]3c3ccc(O)cc34)ncnc21 (relative stereo) [Example 37, (±)-N^6-(exo-2'-amino-6'-hydroxybenzonorbornyl)-9-methyladenine]
9.55 nM	602	5750 nM	CC(C)Nc1nc2c(N[C@@H]3C[C@H]4C[C@@H]3C[C@H]4O)ncnc2n1C (relative stereo) [Example 26]

From patent US5670501A, “N-substituted 9-alkyladenines” (Discovery Therapeutics, Inc., priority 1994, dated 1997)
